The text below walks through data of US11447500B2, “Thienopyridine derivatives and pharmaceutical composition comprising same” (WELLMARKER BIO CO., LTD., priority 2018, dated 2022).

Where a name gives a salt, the structure may show the parent alone.

For the first experiment, the system named is RON-activated KM12C colon cancer cell line. Kind of experiment: Cell killing efficacy, trypan blue exclusion assay, KM12C. It counts as cell-based. Conditions: 1 μM, 48 hours. The method, then: (§1) Two colon cancer cell lines, RON-activated KM12C (80015, KCLB, MEM+10% FBS) and RON-mutated (Δ160) HT-29 (30038, KCLB, RPMI+10% FBS) were prepared in 6-well plates at 5×10^4 cells/well, respectively. After 24 hours, while freshly changing the medium, the sample compounds were added to the wells at a concentration of 1 μM or 5 μM and the plates were allowed to stand for 48 hours.
(§2) As the sample compounds, the compounds synthesized in the examples of the present invention and the compounds of the comparative examples were used.
(§3) After 48 hours, the cell suspensions were collected and centrifuged (1,500 rpm, 4 min.) to obtain the cells, and live cells and dead cells were quantitated (n=2) through a trypan blue (15250-061, Gibco) exclusion assay. The statistical analysis was performed using Excel™ T-test from Microsoft.
(§4) The cell death rates of the compounds of Examples and Comparative Examples were respectively measured and the results are shown in Table 4 as relative ratios to Comparative Example 1.
On to `CCOc1ccn(-c2ccccc2)c(=O)c1C(=O)Nc1ccc(Oc2ccnc3cc(-c4ccc(CN5CCN(C)CC5)cn4)sc23)c(F)c1.Cl` [Example 34], for which the “Cell death rate (Relative to Comp. Ex. 1)” value is “x 2.07”.

Still in this experiment, the particulars now being: 5 μM, 48 hours.
In the case of `CCOc1ccn(-c2ccccc2)c(=O)c1C(=O)Nc1ccc(Oc2ccnc3cc(-c4ccc(CN5CCN(C)CC5)cn4)sc23)c(F)c1.Cl` [Example 34], the “Cell death rate (Relative to Comp. Ex. 1)” value is recorded as “x 1.11”.

A further experiment deals with RON-mutated (Δ160) HT-29 colon cancer cell line. Kind of experiment: Cell killing efficacy, trypan blue exclusion assay, HT-29. It counts as cell-based. Conditions: HT29 cell, 1 μM, 48 hours. The method, then:
as §1, §2, §3, §4
As for `CCOc1ccn(-c2ccccc2)c(=O)c1C(=O)Nc1ccc(Oc2ccnc3cc(-c4ccc(CN5CCN(C)CC5)cn4)sc23)c(F)c1.Cl` [Example 34], the “Cell death rate (Relative to Comp. Ex. 1)” value is recorded as “x 2.12”.

The experiment is the same for the next values; noted with them: HT29 cell, 5 μM, 48 hours.
For the molecule `CCOc1ccn(-c2ccccc2)c(=O)c1C(=O)Nc1ccc(Oc2ccnc3cc(-c4ccc(CN5CCN(C)CC5)cn4)sc23)c(F)c1.Cl` [Example 34], the “Cell death rate (Relative to Comp. Ex. 1)” value is given as “x 1.66”.

In the next experiment the target is T1, RON kinase (Homo sapiens, UniProt Q04912).
T1 construct: purchased Carna Bioscience
T1 sequence (Q04912 25-1400): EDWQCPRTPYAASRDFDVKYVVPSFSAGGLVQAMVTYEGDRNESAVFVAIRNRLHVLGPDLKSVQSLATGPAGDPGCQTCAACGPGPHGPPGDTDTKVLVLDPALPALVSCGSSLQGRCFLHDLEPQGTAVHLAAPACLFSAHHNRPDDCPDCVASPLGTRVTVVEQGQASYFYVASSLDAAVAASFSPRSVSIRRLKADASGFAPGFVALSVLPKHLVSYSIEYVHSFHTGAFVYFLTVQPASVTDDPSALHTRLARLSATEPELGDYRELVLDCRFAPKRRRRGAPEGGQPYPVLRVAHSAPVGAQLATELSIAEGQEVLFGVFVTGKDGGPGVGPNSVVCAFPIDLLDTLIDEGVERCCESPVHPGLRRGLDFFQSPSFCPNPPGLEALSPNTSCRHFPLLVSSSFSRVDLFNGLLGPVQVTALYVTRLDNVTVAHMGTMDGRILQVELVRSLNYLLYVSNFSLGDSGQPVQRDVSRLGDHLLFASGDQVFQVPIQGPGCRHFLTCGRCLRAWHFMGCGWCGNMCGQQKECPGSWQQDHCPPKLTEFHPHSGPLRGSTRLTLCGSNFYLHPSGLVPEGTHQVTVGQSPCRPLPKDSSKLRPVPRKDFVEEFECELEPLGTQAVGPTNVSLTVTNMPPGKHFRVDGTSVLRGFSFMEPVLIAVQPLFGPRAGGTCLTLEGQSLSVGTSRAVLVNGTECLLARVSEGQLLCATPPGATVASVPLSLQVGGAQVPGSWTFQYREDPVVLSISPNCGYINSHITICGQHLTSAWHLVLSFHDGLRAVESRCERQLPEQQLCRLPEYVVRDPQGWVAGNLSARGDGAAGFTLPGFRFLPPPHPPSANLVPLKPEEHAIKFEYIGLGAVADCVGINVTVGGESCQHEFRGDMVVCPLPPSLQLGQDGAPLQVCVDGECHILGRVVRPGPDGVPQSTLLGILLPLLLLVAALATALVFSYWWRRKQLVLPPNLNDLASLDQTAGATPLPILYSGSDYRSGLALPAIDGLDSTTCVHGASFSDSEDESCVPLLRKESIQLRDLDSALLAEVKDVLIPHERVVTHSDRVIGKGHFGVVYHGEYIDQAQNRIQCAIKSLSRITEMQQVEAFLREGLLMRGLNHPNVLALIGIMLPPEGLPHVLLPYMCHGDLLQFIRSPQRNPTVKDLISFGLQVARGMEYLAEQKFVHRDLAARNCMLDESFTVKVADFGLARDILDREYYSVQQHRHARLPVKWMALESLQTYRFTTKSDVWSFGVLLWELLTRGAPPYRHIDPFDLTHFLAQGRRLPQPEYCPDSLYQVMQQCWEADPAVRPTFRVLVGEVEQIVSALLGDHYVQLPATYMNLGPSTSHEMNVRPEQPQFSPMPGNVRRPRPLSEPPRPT
Kind of experiment: RON kinase enzyme inhibitory activity, FRET (TR-FRET) technique. Particulars: 60 min reaction. It counts as biochemical. The method, then: The enzyme inhibitory activity (IC50) of the thienopyridine derivative was measured using FRET (fluorescence resonance energy transfer) technique. RON kinase (Carna Bioscience) was diluted with a kinase assay buffer (50 mM HEPES pH 7.5, 1 mM EGTA, 10 mM MgCl2, 2 mM DTT, and 0.01% Tween-20) to a concentration of 2× (0.4 nM) the final reaction concentration and the dilution was added to a 384-well plate at 5 μL/well. As sample compounds, the compounds synthesized in the examples of the present invention and the compounds of the comparative examples were used. The sample compounds were respectively dissolved in 100% DMSO to obtain 1 mM stock solutions, which were then subjected to eight 10-fold serial dilutions. The sample compounds were diluted with the kinase assay buffer to a concentration of 4× the final reaction concentration, and the dilutions were added to the 384-well plate at 2.5 μL/well. The plate was incubated at room temperature for 15 minutes. Next, 0.25 M ATP solution (Sigma Aldrich) was diluted with the kinase reaction buffer to a concentration of 4× (60 μM) the final reaction concentration, and a tyrosine peptide substrate (Perkin-Elmer) was diluted therein to a concentration of 4× (400 nM) the final reaction concentration. The dilution was added to the 384-well plate at 2.5 μL/well. Then, the 384-well plate was incubated at room temperature and the reaction was allowed to proceed for 60 minutes. After 60 minutes, EDTA (Sigma Aldrich) was diluted with TR-FRET detection buffer (Perkin-Elmer) to a concentration of 4× (40 mM) the final reaction concentration. A europium-labeled anti-phosphotyrosine antibody (Perkin-Elmer) was diluted in the above EDTA dilution to a concentration of 4× (8 nM) the final reaction concentration to prepare a stop solution of the RON kinase reaction. The stop solution was added to the 384-well plate at 10 μL/well to terminate the reaction, and the plate was incubated at room temperature for 60 minutes. Thereafter, the plate was read on Victor X5 plate reader (Perkin-Elmer). At this time, the excitation wavelength was 340 nm and the emission wavelengths were 620 nm and 665 nm. The IC50 values of the sample compounds were determined using GraphPad Prism™ 5 by expressing the emission energy at 665 nm as a function of the sample compound concentration.
As for `CCOc1ccn(-c2ccc(F)cc2)c(=O)c1C(=O)Nc1ccc(Oc2ccnc3cc(-c4ccc(CN(CCOC)C(=O)OC(C)(C)C)cn4)sc23)c(F)c1` [Example 6, t-butyl {[6-(7-{4-[4-ethoxy-1-(4-fluorophenyl)-2-oxo-1,2-dihydropyridine-3-carboxamido]-2-fluorophenoxy}thieno[3,2-b]pyridin-2-yl)pyridin-3-yl]methyl}(2-methoxyethyl)carbamate], 21.9 nM corresponded to half-maximal inhibition (IC50). `COCCNCc1ccc(-c2cc3nccc(Oc4ccc(NC(=O)c5c(OC)ccn(-c6ccc(F)cc6)c5=O)c(Cl)c4)c3s2)nc1` [Example 10, N-(2-chlor-4-{[-2-(5-{[(2-methoxyethyl)amino]methyl}pyridin-2-yl)thieno[3,2-b]pyridin-7-yl]oxy}phenyl)-1-(4-fluorophenyl)-4-methoxy-2-oxo-1,2-dihydropyridine-3-carboxamide Hydrochloride] showed an IC50 of 5.66 nM. Still for that read-out and setting: the figure for `COCCNCc1ccc(-c2cc3nccc(Oc4ccc(NC(=O)c5cccn(-c6ccccc6)c5=O)cc4F)c3s2)nc1` [Example 5, N-(3-fluoro-4-{[2-(5-{[(2-methoxyethyl)amino]methyl}pyridin-2-yl)thieno[3,2-b]pyridin-7-yl]oxy}phenyl)-2-oxo-1-phenyl-1,2-dihydropyridine-3-carboxamide Hydrochloride] is 1.15 nM; for `COCCNCc1ccc(-c2cc3nccc(Oc4ccc(NC(=O)c5c(OC)ccn(-c6ccc(Cl)cc6)c5=O)cc4F)c3s2)nc1` [Example 13, 1-(4-chlorophenyl)-N-(3-fluoro-4-{[2-(5-{[(2-methoxyethyl)amino]methyl}pyridin-2-yl)thieno[3,2-b]pyridin-7-yl]oxy}phenyl)-4-methoxy-2-oxo-1,2-dihydropyridine-3-carboxamide Hydrochloride] it is 1.14 nM. Molecule `COCCNCc1ccc(-c2cc3nccc(Oc4ccc(NC(=O)c5cc(C)c(C)n(-c6ccc(F)cc6)c5=O)cc4F)c3s2)nc1` [Example 27, N-(3-fluoro-4-([2-(5-{[(2-methoxyethyl)amino)methyl]pyridin-2-yl}thieno[3,2-b]pyridin-7-yl)oxy]phenyl}-1-(4-fluorophenyl)-5,6-dimethyl-2-oxo-1,2-dihydropyridine-3-carboxamide Hydrochloride] had an IC50 of 1.93 nM. `COCCNCc1ccc(-c2cc3nccc(Oc4ccc(NC(=O)c5cc(Cl)cn(-c6ccc(F)cc6)c5=O)cc4F)c3s2)nc1` [Example 24, 5-chloro-N-(3-fluoro-4-{[2-(5-{[(2-methoxyethyl)amino]methyl}pyridin-2-yl)thieno[3,2-b]pyridin-7-yl]oxy}phenyl)-1-(4-fluorophenyl)-2-oxo-1,2-dihydropyridine-3-carboxamide Hydrochloride] registered an IC50 of 24.2 nM. Same read-out and setting: the figure for `CCOc1ccn(-c2ccc(OC)cc2)c(=O)c1C(=O)Nc1ccc(Oc2ccnc3cc(-c4ccc(CNCCOC)cn4)sc23)c(F)c1` [Example 15, 4-ethoxy-N-(3-fluoro-4-{[2-(5-{[(2-methoxyethyl)amino]methyl}pyridin-2-yl)thieno[3,2-b]pyridin-7-yl]oxy}phenyl)-1-(4-methoxyphenyl)-2-oxo-1,2-dihydropyridine-3-carboxamide Hydrochloride] is 2.93 nM; for `COCCNCc1ccc(-c2cc3nccc(Oc4ccc(NC(=O)c5cc(Br)cn(-c6ccc(F)cc6)c5=O)cc4F)c3s2)nc1` [Example 23, 5-bromo-N-(3-fluoro-4-{[2-(5-1 [(2-methoxyethyl)amino]methyl}pyridin-2-yl)thieno[3,2-b]pyridin-7-yl]oxy}phenyl)-1-(4-fluorophenyl)-2-oxo-1,2-dihydropyridine-3-carboxamide Hydrochloride] it is 8.05 nM. Turning to `COCCNCc1ccc(-c2cc3nccc(Oc4ccc(NC(=O)c5c(C)cnn(-c6ccc(F)cc6)c5=O)cc4F)c3s2)nc1` [Example 17, N-(3-fluoro-4-{[2-(5-{[(2-methoxyethyl)amino]methyl}pyridin-2-yl)thieno[3,2-b]pyridin-7-yl]oxy}phenyl)-2-(4-fluorophenyl)-5-methyl-3-oxo-2,3-dihydropyridazine-4-carboxamide Hydrochloride], the IC50 came out at 1.59 nM. In turn, `CCOc1ccn(-c2cccc(OC)c2)c(=O)c1C(=O)Nc1ccc(Oc2ccnc3cc(-c4ccc(CNCCOC)cn4)sc23)c(F)c1` [Example 16, 4-ethoxy-N-(3-fluoro-4-{[2-(5-{[(2-methoxyethyl)amino]methyl}pyridin-2-yl)thieno[3,2-b]pyridin-7-yl]oxy}phenyl)-1-(3-methoxyphenyl)-2-oxo-1,2-dihydropyridine-3-carboxamide Hydrochloride] yielded an IC50 of 3.43 nM. The same measure, in the same setting: under `CCOc1ccn(-c2ccc(F)cc2)c(=O)c1C(=O)Nc1ccc(Oc2ccnc3cc(-c4ccc(CN5CCOCC5)cn4)sc23)cc1Cl` [Example 37, N-[2-chloro-4-({2-[5-(morpholinomethyl)pyridin-2-yl]thieno[3,2-b]pyridin-7-yl}oxy)phenyl]-4-ethoxy-1-(4-fluorophenyl)-2-oxo-1,2-dihydropyridine-3-carboxamide Hydrochloride] stands 10.3 nM; under `CCOc1ccn(-c2ccc(F)cc2)c(=O)c1C(=O)Nc1ccc(Oc2ccnc3cc(-c4ccc(CNCCOC)cn4)sc23)cc1Cl` [Example 26, N-(2-chloro-4-{[2-(5-{[(2-methoxyethyl)amino]methyl}pyridin-2-yl)thieno[3,2-b]pyridin-7-yl]oxy}phenyl)-4-ethoxy-1-(4-fluorophenyl)-2-oxo-1,2-dihydropyridine-3-carboxamide Hydrochloride], 3.7 nM; under `CCOc1ccn(-c2ccc(C(F)(F)F)cc2)c(=O)c1C(=O)Nc1ccc(Oc2ccnc3cc(-c4ccc(CNCCOC)cn4)sc23)c(F)c1` [Example 12, 4-ethoxy-N-(3-fluoro-4-{[2-(5-{[(2-methoxyethyl)amino]methyl}pyridin-2-yl)thieno[3,2-b]pyridin-7-yl]oxy}phenyl)-2-oxo-1-(4-(trifluoromethyl)phenyl)-1,2-dihydropyridine-3-carboxamide Hydrochloride], 2.1 nM. On the same count and under the same terms, the figure for `COCCNCc1ccc(-c2cc3nccc(Oc4ccc(NC(=O)c5ccnn(-c6ccccc6)c5=O)cc4F)c3s2)nc1` [Example 19, N-(3-fluoro-4-{[2-(5-{[(2-methoxyethyl)amino]methyl}pyridin-2-yl)thieno[3,2-b]pyridin-7-yl]oxy}phenyl)-3-oxo-2-phenyl-2,3-dihydropyridazine-4-carboxamide Hydrochloride] is 3.66 nM. On the same count and under the same terms, under `CCOc1ccn(-c2ccc(F)cc2)c(=O)c1C(=O)Nc1ccc(Oc2ccnc3cc(-c4ccc(CN5CCOCC5)cn4)sc23)c(Cl)c1` [Example 36, N-[3-chloro-4-({2-[5-(morpholinomethyl)pyridin-2-yl]thieno[3,2-b]pyridin-7-yl}oxy)phenyl]-4-ethoxy-1-(4-fluorophenyl)-2-oxo-1,2-dihydropyridine-3-carboxamide Hydrochloride] stands 2.28 nM; under `COCCNCc1ccc(-c2cc3nccc(Oc4ccc(NC(=O)c5cc(C)cn(-c6ccc(F)cc6)c5=O)cc4F)c3s2)nc1` [Example 29, N-(3-fluoro-4-{[-2-(5-{[(2-methoxyethyl)amino]methyl}pyridin-2-yl)thieno[3,2-b]pyridin-7-yl]oxy}phenyl)-1-(4-fluorophenyl)-5-methyl-2-oxo-1,2-dihydropyridine-3-carboxamide Hydrochloride], 1.21 nM.
